pIC50: −log10 of the molar value.

Data on 16 compounds can be found in patent US20230365537A1, “POLO LIKE KINASE 4 INHIBITORS” (ORIC Pharmaceuticals, Inc., priority 2021, published 2023).

For experiment [1], the target named is human recombinant Aurora A (Homo sapiens (Human), UniProt O14965). In words: Aurora A Kinase Biochemical Assay (ADP-Glo). Conditions: ratio of Aurora A IC50 to PLK4 IC50 (selectivity). As to the method:
(§1) Activity of human recombinant Aurora A (ThermoFisher, cat #PR5935A) was measured by quantification of adenosine diphosphate (ADP) using the ADP-Glo Kinase Assay Kit (Promega, cat #V9102). […] 5 µL of 5.0 nM Aurora A in assay buffer (50 mM HEPES, pH 7.5, 0.01% Brij-35, 0.01% BSA, 10 mM MgCl2, 1 mM EGTA, 1 mM DTT) was added to the plates. Test compounds and Aurora A were incubated for 15 minutes at room temperature (RT). […] Reactions were stopped and the remaining ATP depleted by adding 10uL of ADP-Glo reagent (Promega, cat#V912B) and incubating for 40 minutes at RT. The simultaneous conversion of the remaining ADP to ATP and measurement of the newly synthesized ATP was achieved by addition of 20 µL Kinase Detection reagent (Promega, cat #V914B), incubation for 30 min at RT, and luminescence detection using the EnVision plate reader (PerkinElmer). […] The IC50 values reported in Table 2 were determined using four parameter non-linear regression curve fit.

In experiment [2] the target is human recombinant Aurora B (Homo sapiens (Human), UniProt Q96GD4). In words: Aurora B Kinase Biochemical Assay (ADP-Glo). To be noted: ratio of Aurora B IC50 to PLK4 IC50 (selectivity). The procedure: as §1, with “Aurora B” for “Aurora A”, “cat #PR9210B)” for “cat #PR5935A)”, “of 20” for “of 5.0”
Experiment [3] addresses human recombinant PLK4 (Homo sapiens (Human), UniProt O00444). In words: PLK4 Biochemical Assay (ADP-Glo). Conditions: 0.5 nM PLK4, 8.0 µM ATP, 4.7 µM MBP, 6 hours at RT. As to the method:
as §1, with “recombinant PLK4” for “recombinant Aurora A”, “cat #PV6396)” for “cat #PR5935A)”, “of 1.0” for “of 5.0”, “nM PLK4 protein” for “nM Aurora A”, “and PLK4” for “and Aurora A”, “adding 10 µL” for “adding 10uL”

human recombinant Aurora A, sequence (O14965 whole entry): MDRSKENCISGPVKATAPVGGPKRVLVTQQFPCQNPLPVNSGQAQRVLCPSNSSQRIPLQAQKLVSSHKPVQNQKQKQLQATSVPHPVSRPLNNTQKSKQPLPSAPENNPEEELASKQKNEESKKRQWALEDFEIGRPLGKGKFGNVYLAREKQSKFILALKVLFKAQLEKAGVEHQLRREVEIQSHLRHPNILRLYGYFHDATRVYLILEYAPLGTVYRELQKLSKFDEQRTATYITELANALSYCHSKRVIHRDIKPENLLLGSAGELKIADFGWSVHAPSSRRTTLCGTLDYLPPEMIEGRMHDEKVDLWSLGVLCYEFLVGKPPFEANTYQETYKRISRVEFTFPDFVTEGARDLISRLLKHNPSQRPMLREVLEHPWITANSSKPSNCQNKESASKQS
human recombinant Aurora B, sequence (Q96GD4 whole entry): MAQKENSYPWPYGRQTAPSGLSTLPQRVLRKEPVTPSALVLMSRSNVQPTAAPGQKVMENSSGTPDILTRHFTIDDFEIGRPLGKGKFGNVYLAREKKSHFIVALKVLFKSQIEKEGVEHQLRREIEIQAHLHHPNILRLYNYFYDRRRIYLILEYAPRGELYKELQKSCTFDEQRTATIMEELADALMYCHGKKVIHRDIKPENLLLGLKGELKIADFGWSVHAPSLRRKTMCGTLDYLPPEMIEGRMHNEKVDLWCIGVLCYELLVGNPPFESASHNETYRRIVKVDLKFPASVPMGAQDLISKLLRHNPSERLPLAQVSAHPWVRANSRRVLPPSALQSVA
human recombinant PLK4, sequence (O00444 whole entry): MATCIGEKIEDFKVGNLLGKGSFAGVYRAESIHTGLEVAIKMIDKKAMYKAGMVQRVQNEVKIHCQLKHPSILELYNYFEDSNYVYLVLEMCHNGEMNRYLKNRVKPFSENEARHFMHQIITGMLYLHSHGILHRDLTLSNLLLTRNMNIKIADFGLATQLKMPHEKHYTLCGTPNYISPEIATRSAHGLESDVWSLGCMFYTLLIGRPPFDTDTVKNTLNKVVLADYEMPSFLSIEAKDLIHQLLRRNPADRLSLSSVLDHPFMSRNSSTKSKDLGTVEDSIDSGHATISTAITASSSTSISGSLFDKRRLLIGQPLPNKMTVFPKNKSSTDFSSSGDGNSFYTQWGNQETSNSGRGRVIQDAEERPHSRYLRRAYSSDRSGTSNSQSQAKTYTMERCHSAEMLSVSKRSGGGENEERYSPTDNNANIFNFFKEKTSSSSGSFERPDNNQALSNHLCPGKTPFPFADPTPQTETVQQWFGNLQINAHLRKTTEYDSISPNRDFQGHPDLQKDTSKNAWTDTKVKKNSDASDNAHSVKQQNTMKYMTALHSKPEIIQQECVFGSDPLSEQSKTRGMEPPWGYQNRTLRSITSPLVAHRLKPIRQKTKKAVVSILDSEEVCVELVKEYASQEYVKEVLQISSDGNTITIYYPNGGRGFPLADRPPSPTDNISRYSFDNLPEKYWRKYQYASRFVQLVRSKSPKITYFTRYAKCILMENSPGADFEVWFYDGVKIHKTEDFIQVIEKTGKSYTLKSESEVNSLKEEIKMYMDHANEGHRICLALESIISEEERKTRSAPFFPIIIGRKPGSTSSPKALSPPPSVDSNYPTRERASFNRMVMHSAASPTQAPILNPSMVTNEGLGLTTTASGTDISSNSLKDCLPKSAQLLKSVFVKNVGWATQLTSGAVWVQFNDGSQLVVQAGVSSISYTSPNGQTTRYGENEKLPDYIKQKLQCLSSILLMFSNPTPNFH

On to `COc1ccc2c(c1)[C@]1(C[C@H]1c1ccc3c(Nc4cc(OC)ncn4)n[nH]c3c1)C(=O)N2` [Example 14, (1R,2S)-5′-methoxy-2-{3-[(6-methoxypyrimidin-4-yl)amino]-1H-indazol-6-yl}spiro[cyclopropane-1,3′-indol]-2′(1′H)-one], for which the “[Aurora A IC50 (nM)]/[PLK4 IC50 (nM)]” value in experiment [1] came to 74.16. For the same compound, the “[Aurora B IC50 (nM)]/[PLK4 IC50 (nM)]” value in experiment [2] came to 3.866. In addition, the pIC50 in experiment [3] is 7.44.
Take `COc1ccc2c(c1)[C@]1(C[C@H]1c1ccc3c(Nc4cccc5c4OCC5)n[nH]c3c1)C(=O)N2` [Example 16, (1R,2S)-2-{3-[(2,3-dihydro-1-benzofuran-7-yl)amino]-1H-indazol-6-yl}-5′-methoxyspiro[cyclopropane-1,3′-indol]-2′(1′H)-one]: in experiment [1], the “[Aurora A IC50 (nM)]/[PLK4 IC50 (nM)]” value stood at 605.6855. In experiment [2], the “[Aurora B IC50 (nM)]/[PLK4 IC50 (nM)]” value amounted to 11.76. For the same compound, the pIC50 in experiment [3] was 8.66.
`COc1ccc2c(c1)[C@]1(C[C@H]1c1ccc3c(Nc4ncccc4OC)n[nH]c3c1)C(=O)N2` [Example 17, (1R,2S)-5′-methoxy-2-{3-[(3-methoxypyridin-2-yl)amino]-1H-indazol-6-yl}spiro[cyclopropane-1,3′-indol]-2′(1′H)-one]: in experiment [1], the “[Aurora A IC50 (nM)]/[PLK4 IC50 (nM)]” value amounted to 1145.911. In addition, in experiment [2], the “[Aurora B IC50 (nM)]/[PLK4 IC50 (nM)]” value stood at 34.9. Besides, in experiment [3], the pIC50 is 8.37.
Turning to `COc1ccc2c(c1)[C@]1(C[C@H]1c1ccc3c(Nc4cn(C)nc4OC)n[nH]c3c1)C(=O)N2` [Example 25, (1R,2S)-5′-methoxy-2-{3-[(3-methoxy-1-methyl-1H-pyrazol-4-yl)amino]-1H-indazol-6-yl}spiro[cyclopropane-13′-indol]-2′(1′H)-one], in experiment [1], the “[Aurora A IC50 (nM)]/[PLK4 IC50 (nM)]” value is listed as 249.6489. Besides, the “[Aurora B IC50 (nM)]/[PLK4 IC50 (nM)]” value in experiment [2] is on record as 28.1. Further, the negative logarithm of the IC50 (pIC50) in experiment [3] was 7.47.
For the compound `COc1ccc2c(c1)[C@]1(C[C@H]1c1ccc3c(Nc4cnn5c4OCC5)n[nH]c3c1)C(=O)N2` [Example 30, (1R,2S)-2-{3-[(2,3-dihydropyrazolo[5,1-b][1,3]oxazol-7-yl)amino]-1H-indazol-6-yl}-5′-methoxyspiro[cyclopropane-1,3′-indol]-2′(1′H)-one], the “[Aurora A IC50 (nM)]/[PLK4 IC50 (nM)]” value in experiment [1] amounted to 36.2. In addition, the “[Aurora B IC50 (nM)]/[PLK4 IC50 (nM)]” value in experiment [2] worked out at 6.188. Also, the pIC50 in experiment [3] is 7.51.
With `COc1ccc2c(c1)[C@]1(C[C@H]1c1ccc3c(Nc4cccc5c4OCC5=O)n[nH]c3c1)C(=O)N2` [Example 31, (1R,2S)-5′-methoxy-2-{3-[(3-oxo-2,3-dihydro-1-benzofuran-7-yl)amino]-1H-indazol-6-yl}spiro[cyclopropane-1,3′-indol]-2′(1′H)-one], the “[Aurora A IC50 (nM)]/[PLK4 IC50 (nM)]” value in experiment [1] is given as 207.053. Besides, in experiment [2], the “[Aurora B IC50 (nM)]/[PLK4 IC50 (nM)]” value is listed as 22.17. Besides, the pIC50 in experiment [3] is 8.52.
For the compound `COc1ccc2c(c1)[C@]1(C[C@H]1c1ccc3c(Nc4nccc5c4OCC5)n[nH]c3c1)C(=O)N2` [Example 32, (1R,2S)-2-{3-[(2,3-dihydrofuro[2,3-c]pyridin-7-yl)amino]-1H-indazol-6-yl}-5′-methoxyspiro[cyclopropane-1,3′-indol]-2′(1′H)-one], the “[Aurora A IC50 (nM)]/[PLK4 IC50 (nM)]” value in experiment [1] was 911.8842. The “[Aurora B IC50 (nM)]/[PLK4 IC50 (nM)]” value in experiment [2] was 17.5546. Besides, the pIC50 in experiment [3] was 8.40.
As to `COc1ccc2c(c1)[C@]1(C[C@H]1c1ccc3c(Nc4nccc5c4OC[C@@H]5CO)n[nH]c3c1)C(=O)N2` [Example 33, (1R,2S)-2-(3-{[(3S)-3-(hydroxymethyl)-2,3-dihydrofuro[2,3-c]pyridin-7-yl]amino}-1H-indazol-6-yl)-5′-methoxyspiro[cyclopropane-1,3′-indol]-2′(1′H)-one], the “[Aurora A IC50 (nM)]/[PLK4 IC50 (nM)]” value in experiment [1] was found to be 355.9465. Besides, the “[Aurora B IC50 (nM)]/[PLK4 IC50 (nM)]” value in experiment [2] came to 8.474. The pIC50 in experiment [3] was 8.23.
The matching figures for `COc1ccc2c(c1)[C@]1(C[C@H]1c1ccc3c(Nc4cc(N5CC(OC)C5)ncn4)n[nH]c3c1)C(=O)N2` [Example 35, (1R,2S)-5′-methoxy-2-(3-{[6-(3-methoxyazetidin-1-yl)pyrimidin-4-yl]amino}-1H-indazol-6-yl)spiro[cyclopropane-1,3′-indol]-2′(1′H)-one]: 67.3, 2.162 and 8.12.
As for `COc1ccc2c(c1)[C@]1(C[C@H]1c1ccc3c(Nc4cc(N5CC(O)C5)ncn4)n[nH]c3c1)C(=O)N2` [Example 36, (1R,2S)-2-(3-{[6-(3-hydroxyazetidin-1-yl)pyrimidin-4-yl]amino}-1H-indazol-6-yl)-5′-methoxyspiro[cyclopropane-1,3′-indol]-2′(1′H)-one], the “[Aurora A IC50 (nM)]/[PLK4 IC50 (nM)]” value in experiment [1] was found to be 218.2083. The “[Aurora B IC50 (nM)]/[PLK4 IC50 (nM)]” value in experiment [2] was found to be 5.701. Besides, the negative logarithm of the IC50 (pIC50) in experiment [3] was 8.21.
As for `COc1ccc2c(c1)[C@]1(C[C@H]1c1ccc3c(Nc4ncnc(N5C6CCC5COC6)c4OC)n[nH]c3c1)C(=O)N2` [Example 37, (1R,2S)-2-(3-((6-(3-oxa-8-azabicydo[3.2.1]octan-8-yl)-5-methoxypyrimidin-4-yl)amino)-1H-indazol-6-yl)-5′-methoxyspiro[cydopropane-1,3′-indolin]-2′-one], the “[Aurora A IC50 (nM)]/[PLK4 IC50 (nM)]” value in experiment [1] is 1799.358. Besides, the “[Aurora B IC50 (nM)]/[PLK4 IC50 (nM)]” value in experiment [2] is given as 49.51. In addition, in experiment [3], the pIC50 was 7.90.
On to `COc1ccc2c(c1)[C@]1(C[C@H]1c1ccc3c(Nc4cc(OCCO)ncn4)n[nH]c3c1)C(=O)N2` [Example 38, (1R,2S)-2-(3-{[6-(2-hydroxyethoxy)pyrimidin-4-yl]amino}-1H-indazol-6-yl)-5′-methoxyspiro[cyclopropane-1,3′-indol]-2′(1′H)-one], for which, in experiment [1], the “[Aurora A IC50 (nM)]/[PLK4 IC50 (nM)]” value was 43.69. Further, in experiment [2], the “[Aurora B IC50 (nM)]/[PLK4 IC50 (nM)]” value is 2.761. In addition, the pIC50 in experiment [3] was 7.85.
Turning to `COc1ccc2c(c1)[C@]1(C[C@H]1c1ccc3c(Nc4cc(N5CCS(=O)(=O)CC5)ncn4)n[nH]c3c1)C(=O)N2` [Example 39, (1R,2S)-2-(3-((6-(1,1-dioxidothiomorpholino)pyrimidin-4-yl)amino)-1H-indazol-6-yl)-5′-methoxyspiro[cyclopropane-1,3′-indolin]-2′-one], the “[Aurora A IC50 (nM)]/[PLK4 IC50 (nM)]” value in experiment [1] worked out at 30.38. Besides, in experiment [2], the “[Aurora B IC50 (nM)]/[PLK4 IC50 (nM)]” value came to 1.018. Besides, in experiment [3], the pIC50 was 7.58.
For `COc1ccc2c(c1)[C@]1(C[C@H]1c1ccc3c(Nc4cc(N5CCCOCC5)ncn4)n[nH]c3c1)C(=O)N2` [Example 40, (1R,2S)-5′-methoxy-2-(3-{[6-(1,4-oxazepan-4-yl)pyrimidin-4-yl]amino}-1H-indazol-6-yl)spiro[cyclopropane-1,3′-indol]-2′(1′H)-one], in that order: 67.06, 2.783 and 7.82.
`COc1ccc2c(c1)[C@]1(C[C@H]1c1ccc3c(Nc4ncnc(N5CCC5)c4OC)n[nH]c3c1)C(=O)N2` [Example 42, (1R,2S)-2-(3-{[6-(azetidin-1-yl)-5-methoxypyrimidin-4-yl]amino}-1H-indazol-6-yl)-5′-methoxyspiro[cyclopropane-1,3′-indol]-2′(1′H)-one]: in experiment [1], the “[Aurora A IC50 (nM)]/[PLK4 IC50 (nM)]” value is 1053.808. Besides, the “[Aurora B IC50 (nM)]/[PLK4 IC50 (nM)]” value in experiment [2] was 42.3. The pIC50 in experiment [3] is 7.44.
The matching figures for `COc1ccc2c(c1)[C@]1(C[C@H]1c1ccc3c(Nc4ncnc(N5CC(O)C5)c4OC)n[nH]c3c1)C(=O)N2` [Example 43, (1R,2S)-2-(3-{[6-(3-hydroxyazetidin-1-yl)-5-methoxypyrimidin-4-yl]amino}-1H-indazol-6-yl)-5′-methoxyspiro[cyclopropane-1,3′-indol]-2′(1′H)-one]: 1347.136, 21.9 and 7.84.
